Source: patent publication US4634783A, “Novel amidine compound” (Torii & Co. Ltd., priority 1983, dated 1987)
Where two headings read alike, the source gives them in different places.

Assays:
[1] = Toxicity: median lethal dose (LD50); settings: in vivo, mouse
Plasmin = Plasmin (Homo sapiens, UniProt P00747); assay: anti-plasmin activity (hydrolysis of TAME); format: biochemical; settings: for IC50: TAME hydrolysis, read-out: ID50 Plasmin
Method: (§1) The anti-trypsin, anti-plasmin, anti-kallikrein and anti-thrombin activities were determined according to the method of Muramatsu et al. [M. Muramatsu, T. Onishi, S. Makino, Y. Hayashi and S. Fujii, J. of Biochem., 58, 214 (1965)]. […] The compound No. corresponds to the compound number shown in Examples.

C1r = molecular target: T1, C1r (Homo sapiens, UniProt P00736); assay: anti-C1 esterase (C1r) activity (hydrolysis of AAME); format: biochemical; settings: for IC50: AAME hydrolysis, read-out: ID50 C1r; for inhibition at 10 µM: at 1×10^-5 M, figure in parentheses, read-out: percent inhibition C1r
T1 sequence (P00736 464-705 limits assumed): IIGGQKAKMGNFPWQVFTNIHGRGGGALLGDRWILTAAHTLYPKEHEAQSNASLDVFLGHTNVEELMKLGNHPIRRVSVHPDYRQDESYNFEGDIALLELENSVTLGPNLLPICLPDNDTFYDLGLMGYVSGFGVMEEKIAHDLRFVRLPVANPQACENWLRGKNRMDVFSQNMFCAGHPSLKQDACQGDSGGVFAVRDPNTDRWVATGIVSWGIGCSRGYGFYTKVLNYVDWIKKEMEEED
T1 sequence (P00736 18-463 limits assumed): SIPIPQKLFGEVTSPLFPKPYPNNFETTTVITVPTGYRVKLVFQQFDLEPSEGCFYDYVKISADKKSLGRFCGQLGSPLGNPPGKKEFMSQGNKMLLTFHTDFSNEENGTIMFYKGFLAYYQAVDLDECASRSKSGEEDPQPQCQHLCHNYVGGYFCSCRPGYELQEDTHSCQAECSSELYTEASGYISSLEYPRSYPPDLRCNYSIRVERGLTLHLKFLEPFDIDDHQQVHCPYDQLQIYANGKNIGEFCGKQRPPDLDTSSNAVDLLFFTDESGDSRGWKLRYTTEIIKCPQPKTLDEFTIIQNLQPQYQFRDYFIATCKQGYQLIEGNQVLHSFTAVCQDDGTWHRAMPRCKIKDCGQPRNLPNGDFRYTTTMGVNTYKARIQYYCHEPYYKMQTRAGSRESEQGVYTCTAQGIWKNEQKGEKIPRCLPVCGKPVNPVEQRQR
Method: (§2) The anti-C1 esterase (C1r, C1s) activity was determined according to the method of Okamura et al. [K. Okamura, M. Muramatsu and B. Fujii, Biochem. Biophys. Acta, 295, 252-257 (1973)]. The inhibition of complement mediated hemolysis was determined according to the method of Baker et al. [B. R. Baker and E. H. Erickson, J. Med. Chem., 12, 408-414 (1969)]. The figures in Table 2 have the following meanings:
C1r: Molar concentration of the test compound which inhibits 50% of the ability of C1r to hydrolyse AAME (acetylarginin methyl ester) (ID50).

Thrombin = Thrombin (Homo sapiens, UniProt P00734); assay: biochemical; settings: for IC50: read-out: ID50 Thrombin
[2] = system: complement mediated hemolysis; assay: inhibition of complement mediated hemolysis; format: cell-based
Method: The complement mediated hemolysis is widely used as a means to determine the titration of complement. The principle of this method is based on the fact that hemolysis is caused by the activation of complement, when the latter is added to a complex (immune complex) of erythrocytes and the antibody thereof. The degree of hemolysis varies in proportion to the amount of complement added. Therefore, when a known amount of complement admixed with a C1 esterase inhibitor is used, the hemolysis must be suppressed in proportion to the inhibitory activity.
as §2
Inhibition of complement mediated hemolysis (%): The inhibitory activity is shown in terms of percent inhibition of the compound at varied concentrations: […]

Trypsin = molecular target: T2, Trypsin (Bos taurus, UniProt P00760); assay: anti-trypsin activity (hydrolysis of TAME); format: biochemical; settings: read-out: ID50 Trypsin
T2 sequence (P00760 24-246): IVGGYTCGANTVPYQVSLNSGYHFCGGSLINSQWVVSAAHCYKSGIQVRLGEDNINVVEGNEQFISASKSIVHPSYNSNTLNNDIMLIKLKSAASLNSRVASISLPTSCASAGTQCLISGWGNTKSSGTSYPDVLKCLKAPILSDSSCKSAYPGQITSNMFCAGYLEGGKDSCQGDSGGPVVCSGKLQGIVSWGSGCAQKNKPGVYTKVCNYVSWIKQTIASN
Method: as §1

C1s = molecular target: T3, C1s (Homo sapiens, UniProt P09871); assay: anti-C1 esterase (C1s) activity (hydrolysis of ATEE); format: biochemical; settings: for IC50: ATEE hydrolysis, read-out: ID50 C1s; for inhibition at 10 µM: at 1×10^-5 M, figure in parentheses, read-out: percent inhibition C1s
T3 sequence (P09871 438-688 limits assumed): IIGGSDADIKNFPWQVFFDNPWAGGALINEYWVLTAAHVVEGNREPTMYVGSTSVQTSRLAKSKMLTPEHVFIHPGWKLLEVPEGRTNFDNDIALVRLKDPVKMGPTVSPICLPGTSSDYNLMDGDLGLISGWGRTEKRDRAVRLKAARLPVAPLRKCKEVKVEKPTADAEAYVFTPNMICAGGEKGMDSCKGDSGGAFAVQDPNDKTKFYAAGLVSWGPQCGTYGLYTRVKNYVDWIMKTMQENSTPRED
T3 sequence (P09871 16-437 limits assumed): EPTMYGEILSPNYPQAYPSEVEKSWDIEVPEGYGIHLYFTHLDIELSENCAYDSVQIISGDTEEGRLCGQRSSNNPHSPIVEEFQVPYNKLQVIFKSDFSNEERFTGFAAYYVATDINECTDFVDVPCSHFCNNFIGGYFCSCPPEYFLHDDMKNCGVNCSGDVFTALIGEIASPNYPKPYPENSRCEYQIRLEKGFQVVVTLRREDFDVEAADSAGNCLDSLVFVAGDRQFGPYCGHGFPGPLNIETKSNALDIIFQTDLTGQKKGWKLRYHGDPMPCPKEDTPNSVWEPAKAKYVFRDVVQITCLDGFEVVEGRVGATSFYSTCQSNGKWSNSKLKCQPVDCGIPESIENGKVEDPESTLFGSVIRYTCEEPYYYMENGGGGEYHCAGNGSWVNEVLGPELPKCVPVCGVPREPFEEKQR
Method: as §2
C1s: Molar concentration of the test compound which inhibits 50% of the ability of C1s to hydrolyse ATEE (acetyltyrosin ethyl ester) (ID50).

Forssman shock = assay: Forssman shock; format: in vivo; settings: test compound 3 mg/kg before hemolysin i.v.; male Hartlay guinea pig; control death at 278, 318, 296 sec.
Excerpt: Quite different from other animals, guinea pig has on the surface of its organs a specific antigen called Forssman antigen which specifically reacts with the antibody of sheep erythrocyte. Forssman shock is based on the above principle and is a shock caused by the administration of antibody of sheep erythrocyte to a guinea pig. The Forssman shock was investigated in detail by many researches and it was definitely shown that this shock is a model case where the complement plays the principal part and that the shock is associated with a classical pathway in which the complement system is activated progressively starting from C1. Since the participation of complement in autoimmune diseases has been established, the Forssman shock can be said to be a useful means for testing a drug for autoimmune diseases. A drug effective for the treatment of Forssman shock is useful as a drug of autoimmune diseases.
The experiment was performed according to the method of I. G. Offerness et al. [Biochem. Pharmacol., 27 (14), 1873-1878 (1978)]. Male Hartlay guinea pig of about 300 g in body weight was used. Each guinea pig of the control group was administered intravenously with hemolysin (minimum dose to cause the shock) (commercial hemolysin, 5,000 U as assayed by the method of Ogata) and the time elapsed until death was observed. […]

Kallikrein = assay: anti-kallikrein activity (hydrolysis of TAME); format: biochemical; settings: for IC50: TAME hydrolysis, read-out: ID50 Kallikrein; for percentage inhibition Kallikrein: at 1×10^-5 M, figure in parentheses
Method: as §1

Chain of Plasmin (P00747 581-810 limits assumed, species assumed): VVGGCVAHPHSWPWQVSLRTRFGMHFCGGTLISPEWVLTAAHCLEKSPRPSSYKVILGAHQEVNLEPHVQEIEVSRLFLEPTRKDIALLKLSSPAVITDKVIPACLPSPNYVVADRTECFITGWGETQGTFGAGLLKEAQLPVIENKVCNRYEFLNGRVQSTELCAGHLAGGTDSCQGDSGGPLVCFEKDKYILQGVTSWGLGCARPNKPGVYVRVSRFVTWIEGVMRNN
Chain of Plasmin (P00747 97-580 limits assumed, species assumed): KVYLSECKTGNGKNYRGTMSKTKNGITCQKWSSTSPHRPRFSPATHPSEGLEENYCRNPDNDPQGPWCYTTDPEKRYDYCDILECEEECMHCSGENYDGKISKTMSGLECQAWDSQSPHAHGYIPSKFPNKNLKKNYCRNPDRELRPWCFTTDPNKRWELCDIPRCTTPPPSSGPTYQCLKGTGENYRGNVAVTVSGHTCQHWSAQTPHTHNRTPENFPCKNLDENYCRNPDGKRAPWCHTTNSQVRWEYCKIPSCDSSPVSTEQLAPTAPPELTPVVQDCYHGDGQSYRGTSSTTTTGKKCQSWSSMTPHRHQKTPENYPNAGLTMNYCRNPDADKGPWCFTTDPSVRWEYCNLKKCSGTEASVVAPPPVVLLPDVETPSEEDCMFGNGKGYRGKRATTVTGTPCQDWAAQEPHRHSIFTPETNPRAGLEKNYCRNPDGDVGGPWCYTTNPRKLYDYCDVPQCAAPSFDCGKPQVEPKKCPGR

Row | IC50 (Plasmin) [nM] | IC50 (C1r) [nM] | IC50 (Thrombin; TAME hydrolysis) [nM] | IC50 (Trypsin) [nM] | IC50 (C1s) [nM] | IC50 (Kallikrein) [nM] | IC50 (Thrombin) [nM] | inhibition at 10 µM (C1r) [%] | inhibition at 10 µM (C1s) [%] | inhibition at 10 µM (Plasmin; at 1×10^-5 M, figure in parentheses, read-out: percentage inhibition Plasmin) [%] | inhibition at 10 µM (Thrombin; at 1×10^-5 M, figure in parentheses, read-out: percentage inhibition Thrombin) [%] | SMILES | LD50 ([1]; ip, I.P.) [mg/kg] | LD50 ([1]; po, P.O.) [mg/kg] | Inhibition of complement mediated hemolysis ([2]; 1 × 10^-4) [%] | Inhibition of complement mediated hemolysis ([2]; 1 × 10^-5) [%] | Inhibition of complement mediated hemolysis ([2]; 1 × 10^-6) [%] | Inhibition of complement mediated hemolysis ([2]; 1 × 10^-7) [%] | time elapsed until death (survival) in Forssman shock (Forssman shock) | percentage inhibition Kallikrein (Kallikrein)
1 | 500 | 200 | 300 | 200 | 900 | 200 | – | – | – | – | – | CSCc1ccc(C(=O)Oc2ccc3cc(C(=N)N)ccc3c2)o1 [compound 11] | – | – | 100 | 100 | 99 | 88 | – | –
2 | 300 | 700 | – | < 10 | 400 | 2000 | 3000 | – | – | – | – | Cc1ccc(C(=O)Oc2ccc3cc(C(=N)N)ccc3c2)s1 [compound 23] | – | – | 100 | 99 | 95 | 91 | – | –
3 | 900 | 300 | 300 | 500 | 4000 | 2000 | – | – | – | – | – | CC(=O)OCc1ccc(C(=O)Oc2ccc3cc(C(=N)N)ccc3c2)o1 [compound 9] | – | – | 100 | 100 | 96 | 77 | – | –
4 | 7000 | – | 4000 | 5000 | – | – | – | 18 | 20 | – | – | N=C(N)c1ccc2cc(OC(=O)c3ccccn3)ccc2c1 [compound 45] | – | – | 100 | 98 | 75 | 46 | – | NE (the percentage inhibition is less than 10%)
5 | 300 | 70 | 200 | 200 | 300 | 2000 | – | – | – | – | – | N=C(N)c1ccc2cc(OC(=O)c3cccs3)ccc2c1 [compound 22] | – | – | 100 | 96 | 58 | 34 | – | –
6 | 3000 | 300 | 400 | 500 | 4000 | 2000 | – | – | – | – | – | N=C(N)c1ccc2cc(OC(=O)c3ccc(COCc4ccccc4)o3)ccc2c1 [compound 7] | – | – | 100 | 98 | 96 | 98 | – | –
7 | 3000 | 4000 | 2000 | 3000 | 6000 | – | – | – | – | – | – | COc1ccc2oc(C(=O)Oc3ccc4cc(C(=N)N)ccc4c3)cc2c1 [compound 17] | – | – | 100 | 100 | 95 | 90 | – | NE (the percentage inhibition is less than 10%)
8 | – | – | – | 800 | – | – | – | 30 | 28 | < 10 | 13 | N=C(N)c1ccc2cc(OC(=O)c3ccc([N+](=O)[O-])o3)ccc2c1 [compound 65, 6-amidino-2-naphthyl 5-nitrofuran-2-carboxylate] | – | – | 100 | 100 | 89 | 80 | – | NE (the percentage inhibition is less than 10%)

Row | SMILES | IC50 (Plasmin) [nM] | IC50 (C1r) [nM] | IC50 (Thrombin; TAME hydrolysis) [nM] | IC50 (Trypsin) [nM] | IC50 (C1s) [nM] | IC50 (Kallikrein) [nM] | IC50 (Thrombin) [nM] | inhibition at 10 µM (C1r) [%] | inhibition at 10 µM (C1s) [%] | inhibition at 10 µM (Plasmin; at 1×10^-5 M, figure in parentheses, read-out: percentage inhibition Plasmin) [%] | inhibition at 10 µM (Thrombin; at 1×10^-5 M, figure in parentheses, read-out: percentage inhibition Thrombin) [%] | LD50 ([1]; ip, I.P.) [mg/kg] | LD50 ([1]; po, P.O.) [mg/kg] | Inhibition of complement mediated hemolysis ([2]; 1 × 10^-4) [%] | Inhibition of complement mediated hemolysis ([2]; 1 × 10^-5) [%] | Inhibition of complement mediated hemolysis ([2]; 1 × 10^-6) [%] | Inhibition of complement mediated hemolysis ([2]; 1 × 10^-7) [%] | time elapsed until death (survival) in Forssman shock (Forssman shock) | percentage inhibition Kallikrein (Kallikrein)
9 | COc1ccc(C(=O)Oc2ccc3cc(C(=N)N)ccc3c2)o1 [Compound No. 1, 6-amidino-2-naphthyl 5-methoxy-furan-2-carboxylate] | 400 | 60 | 200 | 10 | 200 | 300 | – | – | – | – | – | 200 | 2500 | 100 | 100 | 98 | 99 | Survival | –
